Experimental data as given in PubChem BioAssay AID2610 (Broad Institute, 2010).
Records with an inconclusive call do not appear. Activity calls are given as the source filed them.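 Rule for the calls: active = EC50 no more than tenfold above the top concentration tested, with valid fit and all samples agreeing; inconclusive = flat fit at 30 to 70% inhibition, poor fit, or split samples; inactive = EC50 beyond tenfold the top concentration tested.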

Test system: BJeLR fibroblast viability, Alamar Blue fluorescence, 48 h
Test: BJeLR fibroblast growth inhibition, viability readout – cell-based, alamar blue fluorescence, 48 h, cherrypicked samples, dose response (AID 2610);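 note: BJ fibroblasts with hTERT plus SV40 large and small T and HRAS V12; EC50 for loss of viable cells so potency reflects cytotoxic compounds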

COc1cccc(/C=C2\SC(=S)N(CCCC(=O)N(CCO)c3ccccc3)C2=O)c1
EC50: 2530 nM

COc1cccc(NC(=O)n2ncc3c(C)cccc32)c1
EC50: > 13300 nM (inactive)

COc1ccc(CCNc2nnc(Sc3nnnn3-c3ccccc3)s2)cc1OC
EC50: 344 nM

O=C(/C=C\c1ccco1)Nc1cc([N+](=O)[O-])ccc1F
EC50: 256 nM

COC(=O)C1=C(C)N(Cc2ccccc2)C(=NCc2cccc(C(F)(F)F)c2)N[C@H]1c1cccc(F)c1
EC50: > 13300 nM (inactive)

COc1ccc(C)cc1Nc1c2c(nc3ccccc13)CCC2
EC50: 292 nM

O=C(NC(Nc1nc2ccc([N+](=O)[O-])cc2s1)(C(F)(F)F)C(F)(F)F)c1ccccc1
EC50: 239 nM

COc1ccccc1-c1nnc2sc(-c3ccc(N(C)C)cc3)nn12
EC50: < 104 nM

C/C(=N\Nc1ncc(Cl)cc1Cl)c1ccccn1
EC50: < 22.2 nM

c1ccc(-c2noc(-c3ccc4c(c3)OCO4)n2)nc1
EC50: > 13300 nM (inactive)

C[C@@H]1C=CC(=O)O[C@@H]1c1ccc(C(F)(F)F)cc1
EC50: 1970 nM

CC(C)(C)c1ccc(-n2nc(C#N)c(Cl)cc2=O)cc1
EC50: 963 nM

CCCCCN=C(N)N/N=C/c1c[nH]c2ccc(OC)cc12
EC50: 2980 nM

COc1cc([C@H]2c3[nH]c4ccccc4c3C[C@H]3C(=O)N4[C@@H](c5cc(OC)c(OC)c(OC)c5)c5[nH]c6ccccc6c5C[C@H]4C(=O)N23)cc(OC)c1OC
EC50: > 13300 nM (inactive)

Cc1cccc(N(C)S(=O)(=O)c2ccc(-c3cnc(C4CC4)o3)cc2)c1
EC50: < 104 nM

Cn1cnc(Sc2ncnc3nc[nH]c23)c1[N+](=O)[O-]
EC50: > 13300 nM (inactive)

Cn1cccc1/C=C1\SC(=Nc2ccc(O)cc2)NC1=O
EC50: < 104 nM

Cc1occc1C(=O)N/N=C/c1ccc2c(c1)OCO2
EC50: > 13300 nM (inactive)

O=C1C=C(c2cccs2)C[C@H](c2ccccc2)[C@H]1n1nnc([N+](=O)[O-])n1
EC50: < 104 nM

CCOC(=O)C1CCN(S(=O)(=O)c2c(Cl)ccc3nonc23)CC1
EC50: 407 nM

CNC(=S)N/N=C/c1ccc(-c2ccc(C(=O)O)cc2)o1
EC50: > 13300 nM (inactive)

O=C(/C=C/c1ccc(F)cc1)NNC(=O)CCN1CCN(Cc2ccccc2)CC1
EC50: > 13300 nM (inactive)

COc1ccccc1C1C2=C(COC2=O)Nc2cc3c(cc21)OCO3 (stereo not given)
EC50: < 104 nM

O=C1SC(Cc2ccccc2)C(=O)N1c1ccccc1 (stereo not given)
EC50: 2350 nM

COc1cccc(N2C(N)=NC(N)=NC2(C)C)c1
EC50: > 13300 nM (inactive)

COC(=O)C[C@](O)(CCCC(C)(C)O)C(=O)O[C@@H]1C(OC)=C[C@]23CCCN2CCc2cc4c(cc2[C@H]13)OCO4
EC50: < 34.7 nM

O=C(CSc1ccccn1)NCc1ccc2c(c1)OCO2
EC50: > 13300 nM (inactive)

O=C(N/N=C/c1cccnc1)c1ccc(NC(=O)C(c2ccccc2)c2ccccc2)cc1
EC50: 344 nM

O=C(N/N=C(\c1ccccc1)c1cccnc1)c1cccc(F)c1
EC50: 697 nM

CCOc1ccc2c(c1)C(C)=CC(C)(C)N2S(=O)(=O)c1ccc(NC(C)=O)cc1
EC50: < 104 nM

CC1CCCN(c2ccc([N+](=O)[O-])cc2C(=O)c2ccccc2)C1 (stereo not given)
EC50: < 104 nM

Cc1ccc(C2CC(c3cccs3)=NN2C(=O)CCl)cc1 (stereo not given)
EC50: 727 nM

Cc1cccc(C)c1NS(=O)(=O)c1ccc(-c2cnc(C3CC3)o2)cc1
EC50: < 104 nM

C=C1C(=O)C=C2CN(C(=O)c3ccccc3)[C@@](Cc3ccc(F)cc3)(C(=O)OC)[C@@H]12
EC50: 140 nM

COc1ccccc1-n1cnc2cc(NCc3cccs3)ccc21
EC50: < 104 nM

C#CCOc1ccc(C2C3=C(COC3=O)Nc3cc4c(cc32)OCO4)cc1OC (stereo not given)
EC50: < 104 nM

O=C(Nc1nc2ccccc2[nH]1)c1ccccc1F
EC50: > 13300 nM (inactive)

C/C(=N\Nc1ncnc2sc(C)c(C)c12)c1ccccn1
EC50: < 104 nM

Cc1ccc(NC(=O)[C@H](Cc2c[nH]c3ccccc23)NC(=O)[C@@H]2Cc3ccccc3CN2)c(C)c1
EC50: > 13300 nM (inactive)

CCOC(=O)/C(=C\c1ccc([N+](=O)[O-])cc1)C(=O)c1cc(C(C)=O)c(Nc2ccccc2)s1
EC50: 958 nM

Cc1cccc(N2CCN(C(=S)Nc3ccc4nc(N5CCN(C)CC5)cc(C)c4c3)CC2)c1C
EC50: 864 nM

COc1cccc(C(=O)Nc2ccc(N3CCCC3)cc2)c1
EC50: 1970 nM

CC[C@@]1(O)C(=O)OCc2c1cc1n(c2=O)Cc2cc3c(CN(C)C)c(O)ccc3nc2-1
EC50: < 39.2 nM

CCc1ccc(CCC(=O)Nc2ncc(Cc3ccccc3Cl)s2)o1
EC50: 1060 nM

O=Cc1ccc(O)c2ncccc12
EC50: 463 nM

CCN(CC)c1ccc2c(cc1=O)[C@@H](NC)CCc1cc(OC)c(OC)c(OC)c1-2
EC50: 380 nM

COc1ccc(-c2cc3nc(C)n(N)c(=O)c3s2)cc1
EC50: > 13300 nM (inactive)

CCN1/C(=C/c2ccc3ccccc3[n+]2CC)C=Cc2ccccc21
EC50: 726 nM

COc1cc2c(c(OC)c1OC)-c1ccc(N(C)CC(OC)OC)c(=O)cc1[C@@H](NC(C)=O)CC2
EC50: 180 nM

COc1ccc(C2=CC(=O)C=CC2=O)cc1
EC50: > 13300 nM (inactive)

CSc1ccc(COC(=O)c2cc([N+](=O)[O-])ccc2N2CCOCC2)cc1
EC50: < 104 nM

CCCCc1c(C)c(C#N)c2nc3ccccc3n2c1Cl
EC50: 587 nM

CC1CC(C)CN(S(=O)(=O)c2ccc(C(=O)NCCCn3ccnc3)cc2)C1 (stereo not given)
EC50: 150 nM

CC1CCCCC1N(C)C1CCN(C(=O)CNC(=O)/C=C/c2cccc(Cl)c2)CC1 (stereo not given)
EC50: 1290 nM

O=C(Cc1ccc([N+](=O)[O-])cc1)N/N=C/c1ccc([N+](=O)[O-])o1
EC50: 3540 nM

O=C(N/N=C/c1ccccc1Cl)c1[nH]c2ccc(Br)cc2c1-c1ccccc1
EC50: 149 nM

NS(=O)(=O)c1ccc(NC(=O)c2cc(-c3cccs3)nc3ccccc23)cc1
EC50: > 13300 nM (inactive)

COc1ccc(NC(=O)CN(C)S(=O)(=O)c2ccc3[nH]c(=O)oc3c2)cc1
EC50: > 13300 nM (inactive)

O=C(CCl)Nc1cc(SCC(O)CO)cc([N+](=O)[O-])c1 (stereo not given)
EC50: 997 nM

O=C(CCl)N(CCCNC(=O)C(F)(F)F)c1ccc([N+](=O)[O-])cc1
EC50: 424 nM

Cc1sc2cc3c(c(C(=O)c4ccccc4)[n+]2c1C)-c1cccc2cccc-3c12
EC50: 10500 nM

CCOc1cc(/C=C2\COc3ccccc3C2=O)cc(Br)c1OCC(=O)N(C)C
EC50: 3080 nM

FC(F)(F)c1nnc2c(Sc3ccc(Cl)cc3)nc3ccccc3n12
EC50: 531 nM

Cc1ccc2[nH]c3c(c2c1)CCCC3NC(=O)CCl (stereo not given)
EC50: 2270 nM

O=c1cnnc(N/N=C/c2ccccn2)[nH]1
EC50: 1030 nM

CCOC(=O)c1ccc(NC(=O)Nc2ccon2)cc1
EC50: < 104 nM

CCCCCCCCCCn1c2c(c(=N)c3c1CCC3)CCC2
EC50: 820 nM

Nc1nc(CCl)nc(N(c2ccccc2)c2ccccc2)n1
EC50: 121 nM

CCCC(=O)Nc1ccc(C(=O)N/N=C/c2ccc([N+](=O)[O-])o2)cc1
EC50: < 48.8 nM

COc1ccc(C(=O)Nc2nc3ccccc3s2)c(OC)c1
EC50: > 13300 nM (inactive)

O=[N+]([O-])c1ccccc1N/N=C\c1ccccc1Cl
EC50: > 13300 nM (inactive)

Nc1nc(F)nc2c1ncn2[C@@H]1O[C@H](CO)[C@@H](O)[C@H]1O
EC50: 151 nM

CCc1c(C)c(C#N)c2nc3ccccc3n2c1Cl
EC50: 553 nM

COc1ccccc1C(=O)Nc1nc2ccccc2[nH]1
EC50: > 13300 nM (inactive)

O=C(NCc1cccnc1)c1ccc(NC(=O)c2ccc([N+](=O)[O-])cc2)cc1
EC50: 1420 nM

O=C(N/N=C/c1cc2c3c(c1O)CCCN3CCC2)c1ccccc1O
EC50: 755 nM

c1cnc2c(c1)ccc1cccnc12
EC50: 5560 nM

C[C@@H]1C=CC(=O)O[C@@H]1c1ccc(Cl)cc1
EC50: 4190 nM

CCCc1cc(=O)[nH]c(SCC(=O)c2c(N)n(CC(C)C)c(=O)n(C)c2=O)n1
EC50: > 13300 nM (inactive)

CCN1CCc2c(sc(NC(=O)c3cc4ccccc4cc3OC)c2C(N)=O)C1
EC50: 588 nM

Cc1nn(-c2ccccc2)c(Cl)c1CN(C(=O)CCl)c1ccc(Cl)cc1
EC50: 521 nM

CCN1CCN(CCNC(=O)c2ccc(/C=C3/Sc4ccccc4N(Cc4ccccc4C)C3=O)cc2)CC1
EC50: > 13300 nM (inactive)

O=C(c1cccs1)c1no[n+]([O-])c1C(=O)c1cccs1
EC50: 2990 nM

C[C@H]1O[C@@H](O[C@H]2[C@@H](O)C[C@H](O[C@H]3[C@@H](O)C[C@H](O[C@H]4CC[C@@]5(C)[C@H](CC[C@@H]6[C@@H]5C[C@@H](O)[C@]5(C)[C@@H](C7=CC(=O)OC7)CC[C@]65O)C4)O[C@@H]3C)O[C@@H]2C)C[C@H](O)[C@@H]1O
EC50: < 104 nM

COc1ccc(C(=O)c2cc([N+](=O)[O-])ccc2N2CCOCC2)cc1
EC50: < 104 nM

CCN(CC)Cc1c(O)ccc2c1O/C(=C\C=C\c1ccccc1)C2=O
EC50: > 13300 nM (inactive)

O=[N+]([O-])c1c(Nc2ccccn2)cc(Cl)c2nonc12
EC50: 2110 nM

CCN1C(=O)C(=Cc2cccc(OC)c2Oc2ccc([N+](=O)[O-])cc2[N+](=O)[O-])SC1=S
EC50: 1050 nM

CC(=O)Nc1ccc(/C=N/Nc2nc3ccccc3[nH]2)cc1
EC50: > 13300 nM (inactive)

CSc1cc(-c2ccccc2)n(Cc2ccccc2Cl)c(=O)c1C#N
EC50: 709 nM

FC(F)(F)c1nnc2c(Sc3ccccc3)nc3ccc(Cl)cc3n12
EC50: 577 nM

CCN1/C(=C\C=C\C2=[N+](CC)c3ccccc3C2(C)C)C(C)(C)c2ccccc21
EC50: 239 nM

COc1ccc(C[C@H]2NC[C@H](O)[C@H]2OC(C)=O)cc1
EC50: < 64.7 nM

O=Cc1cc2ccccc2nc1SCc1ccc(Cl)cc1
EC50: < 104 nM

CN(C)CCCNc1c2ccccc2nc2ccccc12
EC50: 506 nM

COc1ccc(C(C(=O)NC2CCCCC2)N(C(=O)CCl)c2cccc(Cl)c2)cc1 (stereo not given)
EC50: < 73.2 nM

CCc1ccc(/C=C2/SC(=S)N(CCC(=O)Nc3cccnc3)C2=O)cc1
EC50: 2750 nM

CN(C)CCNC(=O)c1cc2c(s1)-c1ccc(Cl)cc1SC2
EC50: 1120 nM

CCOCCOC(=O)c1[nH]c2c(c1C)C(=O)CC(c1ccccc1)C2 (stereo not given)
EC50: 262 nM

CC(C)(C)c1nnc(N/N=C/c2cc(Br)ccc2O)n(N)c1=O
EC50: 1400 nM

COc1cc(C2c3cc4c(cc3C(OC3OC5COC(c6cccs6)OC5C(O)C3O)C3COC(=O)C23)OCO4)cc(OC)c1O (stereo not given)
EC50: 129 nM

O=C(c1ccc2c3n(nc2c1)-c1ccccc1CO3)N1CCOCC1
EC50: > 13300 nM (inactive)

Cn1ncc2c(O/N=C(\N)c3ccc(C(C)(C)C)cc3)ncnc21
EC50: 2340 nM

Cc1ccc(N2C(=O)c3cccc4c([N+](=O)[O-])ccc(c34)C2=O)c2cccnc12
EC50: 523 nM

Cc1sc2ncnc(N/N=C/c3ccccc3O)c2c1C
EC50: 3700 nM
